Results from patent US6688468B2, “Pharmaceutical kit for oxygen-sensitive drugs” (Pfizer Inc., priority 2001, dated 2004).

Experiment: 18-week stability of Compound I tablets packaged in 60 cc HDPE bottles with HIS; degradation products by HPLC
Format: physicochemical
Details: Initial bulk, 0 weeks
Method: In an initial evaluation of oxygen absorbers, the bottles were sealed with heat induction seals (HIS). The following samples were prepared by placing the following materials in a round HDPE bottle (60 cc capacity) and sealing with a heat-induction seal:
Tablets were stored eighteen weeks under three different conditions: (1) 5° C./75% relative humidity (RH); (2) 40° C./75% RH; and (3) 50° C./20% RH. Air in the bottles was sampled using a gas tight syringe equipped with a septum seal as the foil was punctured. The sampled air was analyzed using a Mocon™ headspace analyzer (PAL Model 450 available from Mocon™ Inc., Minneapolis, Minn.). Each tablet was dissolved in 250 ml of a solution prepared by dissolving 21.6 g of octane sulfonic acid and 6.8 g of potassium phosphate in 1.0 liters of purified water and adjusting the pH to 3 with phosphoric acid followed by the addition of 818 mL of acetonitrile. Degradation products were identified by high pressure liquid chromatography (HPLC) (Waters sym C8 column, 15 cm×3.9 mm, nylon acrodisc filter, HPLC HP 1100 series, 20 μl injection volume, flow of 1 mL/min). The degradation products were compared against three known standards (Compounds I-1A′, I-1A″ and I-1B).

- I-1A′: 0.000 Wt %
- I-1A″: 0.300 Wt %
- I-1B: 0.027 Wt %
- Total: 0.37%
- Unknown (first Unknown column): 0.01 Area %
- Unknown (second Unknown column): 0.03 Area %
SMILES: COc1ccc(C(C)C)cc1CN[C@@H]1C2CCN(CC2)[C@@H]1C(c1ccccc1)c1ccccc1 [Compound I]
